According to ChEMBL document CHEMBL5291721, “A preclinical secondary pharmacology resource illuminates target-adverse drug reaction associations of marketed drugs” (Nat Commun, 2023):

Tests used:
[1] = target: T1, Thromboxane A2 receptor (Homo sapiens, UniProt P21731); format: functional, cell-based
T1 sequence (P21731 whole entry): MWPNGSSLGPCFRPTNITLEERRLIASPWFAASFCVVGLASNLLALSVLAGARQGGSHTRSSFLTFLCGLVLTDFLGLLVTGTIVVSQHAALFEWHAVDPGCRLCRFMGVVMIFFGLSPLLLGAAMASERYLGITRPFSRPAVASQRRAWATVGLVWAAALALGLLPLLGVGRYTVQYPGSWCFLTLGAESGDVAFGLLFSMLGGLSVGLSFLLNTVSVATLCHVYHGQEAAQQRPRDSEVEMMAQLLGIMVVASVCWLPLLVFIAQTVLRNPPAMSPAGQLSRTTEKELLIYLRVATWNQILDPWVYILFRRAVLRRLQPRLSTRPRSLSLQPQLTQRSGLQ

[2] = target: D(3) dopamine receptor (Homo sapiens, UniProt P35462)
Chain of D(3) dopamine receptor (P35462 whole entry): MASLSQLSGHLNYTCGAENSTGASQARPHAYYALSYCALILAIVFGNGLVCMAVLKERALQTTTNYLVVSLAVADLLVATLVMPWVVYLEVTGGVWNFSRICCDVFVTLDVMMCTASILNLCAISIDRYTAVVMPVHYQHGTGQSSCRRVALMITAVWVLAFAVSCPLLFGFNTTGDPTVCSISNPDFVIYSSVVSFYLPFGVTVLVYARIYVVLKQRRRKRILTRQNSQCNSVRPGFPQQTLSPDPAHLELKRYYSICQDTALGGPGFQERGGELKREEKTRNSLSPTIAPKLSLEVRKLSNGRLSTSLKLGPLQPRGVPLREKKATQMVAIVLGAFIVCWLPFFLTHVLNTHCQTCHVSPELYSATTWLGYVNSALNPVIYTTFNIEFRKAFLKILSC

[3] = target: T2, Alpha-1A adrenergic receptor (Homo sapiens, UniProt P35348)
T2 sequence (P35348 whole entry): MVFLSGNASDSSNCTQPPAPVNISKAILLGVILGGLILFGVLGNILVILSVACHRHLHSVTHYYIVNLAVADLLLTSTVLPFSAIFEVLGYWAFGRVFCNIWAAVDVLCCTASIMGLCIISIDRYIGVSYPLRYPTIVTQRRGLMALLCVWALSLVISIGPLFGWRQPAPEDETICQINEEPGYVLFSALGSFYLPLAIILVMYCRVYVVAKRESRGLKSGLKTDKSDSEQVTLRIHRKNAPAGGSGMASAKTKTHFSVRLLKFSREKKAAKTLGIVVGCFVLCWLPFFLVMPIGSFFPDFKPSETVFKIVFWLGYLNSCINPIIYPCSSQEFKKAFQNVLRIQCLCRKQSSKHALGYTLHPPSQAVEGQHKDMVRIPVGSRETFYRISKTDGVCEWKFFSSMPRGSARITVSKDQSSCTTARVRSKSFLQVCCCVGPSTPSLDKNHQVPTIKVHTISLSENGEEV

[4] = target: T3, Muscarinic acetylcholine receptor M2 (Homo sapiens, UniProt P08172); format: functional, cell-based
T3 sequence (P08172 whole entry): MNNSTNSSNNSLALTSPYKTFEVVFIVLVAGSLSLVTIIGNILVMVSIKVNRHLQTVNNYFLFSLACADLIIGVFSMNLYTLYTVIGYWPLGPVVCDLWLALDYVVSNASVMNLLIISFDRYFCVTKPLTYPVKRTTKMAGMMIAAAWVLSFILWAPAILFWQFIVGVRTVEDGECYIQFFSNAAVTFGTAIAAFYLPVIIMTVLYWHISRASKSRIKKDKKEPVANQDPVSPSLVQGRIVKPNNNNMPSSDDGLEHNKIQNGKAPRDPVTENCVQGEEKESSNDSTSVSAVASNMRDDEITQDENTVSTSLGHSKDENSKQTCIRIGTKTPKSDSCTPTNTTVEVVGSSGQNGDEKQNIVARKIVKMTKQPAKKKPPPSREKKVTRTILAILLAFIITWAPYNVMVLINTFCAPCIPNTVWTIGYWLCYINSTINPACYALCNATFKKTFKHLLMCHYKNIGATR

[5] = target: T4, 5-hydroxytryptamine receptor 1A (Homo sapiens, UniProt P08908); format: functional, cell-based
T4 sequence (P08908 whole entry): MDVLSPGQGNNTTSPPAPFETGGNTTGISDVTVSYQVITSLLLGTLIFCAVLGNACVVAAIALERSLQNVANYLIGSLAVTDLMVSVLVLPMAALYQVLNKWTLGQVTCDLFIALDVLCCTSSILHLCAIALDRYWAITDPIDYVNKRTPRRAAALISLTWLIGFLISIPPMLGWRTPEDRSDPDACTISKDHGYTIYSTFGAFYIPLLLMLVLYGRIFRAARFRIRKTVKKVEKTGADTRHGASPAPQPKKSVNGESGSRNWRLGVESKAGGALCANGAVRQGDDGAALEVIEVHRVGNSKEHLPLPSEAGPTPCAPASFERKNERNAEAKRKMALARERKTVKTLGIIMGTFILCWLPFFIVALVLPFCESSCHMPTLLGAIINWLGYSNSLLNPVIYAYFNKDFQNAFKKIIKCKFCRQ

[6] = target: T5, Gastrin/cholecystokinin type B receptor (Homo sapiens, UniProt P32239)
T5 sequence (P32239 whole entry): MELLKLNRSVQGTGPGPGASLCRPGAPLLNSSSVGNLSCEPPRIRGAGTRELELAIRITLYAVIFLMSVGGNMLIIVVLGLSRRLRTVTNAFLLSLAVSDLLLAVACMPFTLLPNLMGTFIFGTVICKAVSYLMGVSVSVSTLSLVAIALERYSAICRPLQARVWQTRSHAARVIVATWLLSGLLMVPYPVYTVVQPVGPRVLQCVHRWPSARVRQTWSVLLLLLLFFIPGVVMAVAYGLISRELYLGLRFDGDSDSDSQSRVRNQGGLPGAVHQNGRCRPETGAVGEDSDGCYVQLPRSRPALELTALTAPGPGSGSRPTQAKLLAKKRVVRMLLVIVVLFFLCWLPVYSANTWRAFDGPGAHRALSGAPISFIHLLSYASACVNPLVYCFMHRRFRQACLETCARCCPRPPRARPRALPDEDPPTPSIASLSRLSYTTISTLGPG
Also: assay procedure not described here.

Row | SMILES | AC50 [1] [µM] | AC50 [2] [µM] | AC50 [3] [µM] | AC50 [4] [µM] | AC50 [5] [µM] | AC50 [6] [µM]
1 | CC(=O)O[C@]1(C(C)=O)CC[C@H]2[C@@H]3C=C(Cl)C4=CC(=O)CC[C@]4(C)[C@H]3CC[C@@]21C [CHLORMADINONE ACETATE] | > 30 | > 30 |  |  |  | 
2 | [H]/N=C(/N)N/C(=N/[H])NCCc1ccccc1 [PHENFORMIN] |  |  | 15 | > 10 | > 30 | > 30
3 | CCCN[C@H]1CCc2nc(N)sc2C1 [PRAMIPEXOLE] |  |  | > 10 | > 10 | > 10 | > 30
4 | CC12CC3CC(C)(C1)CC(N)(C3)C2 [MEMANTINE] |  |  | > 10 | > 10 | > 10 | > 30
5 | CC(C)(C)NC[C@H](O)COc1cccc2c1CCCC2=O [LEVOBUNOLOL] | > 30 | > 30 |  |  |  | 
6 | CCOC(=O)C1=C(C)NC(C)=C(C(=O)OC)C1c1cccc([N+](=O)[O-])c1 (stereo unspecified) [NITRENDIPINE] |  |  | > 10 | > 10 | > 10 | > 30
7 | CNC1=Nc2ccc(Cl)cc2C(c2ccccc2)=[N+]([O-])C1 [CHLORDIAZEPOXIDE] |  |  | > 10 | > 10 |  | > 30
8 | Cc1noc(NS(=O)(=O)c2ccc(N)cc2)c1C [SULFISOXAZOLE] |  |  | > 10 | > 10 |  | 
9 | CCCCC1C(=O)N(c2ccccc2)N(c2ccccc2)C1=O [PHENYLBUTAZONE] |  |  | > 10 | > 10 | > 10 | > 30
10 | CCC[C@H](NC(=O)[C@@H]1[C@H]2CCC[C@H]2CN1C(=O)[C@@H](NC(=O)[C@@H](NC(=O)c1cnccn1)C1CCCCC1)C(C)(C)C)C(=O)C(=O)NC1CC1 |  |  | > 10 |  |  | > 30
11 | Cc1cc(C(C)(C)C)cc(C)c1CC1=NCCN1 [XYLOMETAZOLINE] |  |  | 1.27 | 12.1 |  | > 30
12 | OC1(c2ccc(Cl)cc2)c2ccccc2C2=NCCN21 (stereo unspecified) [MAZINDOL] |  |  | > 10 | > 30 | > 30 | > 30
13 | Cc1cc2cc3c(C)cc(=O)oc3c(C)c2o1 [TRIOXSALEN] |  |  | > 10 | > 10 | > 10 | 
14 | Oc1ccc2c(c1)CC[C@H](c1ccccc1)[C@@H]2c1ccc(OCCN2CCCC2)cc1 [LASOFOXIFENE] |  |  |  |  | > 30 | > 3
15 | CCCC(CCC)C(N)=O [VALPROMIDE] |  |  | > 10 | > 10 |  | > 30
16 | CC(C(=O)O)c1ccc(CC2CCCC2=O)cc1 (stereo unspecified) [LOXOPROFEN] |  |  |  | > 30 | > 30 | > 30
17 | O=C(O)c1cn(C2CC2)c2cc(N3CCNCC3)c(F)cc2c1=O [CIPROFLOXACIN] | > 30 |  |  |  |  | > 30
18 | COC(=O)c1ccc(O)cc1 [METHYLPARABEN] | > 30 | > 30 |  |  |  | 
19 | Cc1ccccc1N1CCN(CCc2nnc3n2CCCC3)CC1 [DAPIPRAZOLE] | > 30 | 16.6 |  |  |  | 
20 | COc1ccc(CN(CCN(C)C)c2ccccn2)cc1 [PYRILAMINE] | > 30 |  |  |  |  | 
21 | CCCCC(=O)O[C@]1(C(=O)CO)[C@@H](C)C[C@H]2[C@@H]3CCC4=CC(=O)C=C[C@]4(C)[C@@]3(F)[C@@H](O)C[C@@]21C [BETAMETHASONE VALERATE] |  |  | > 10 | > 10 |  | > 30
22 | C=C1CC[C@H](O)C/C1=C/C=C1\CCC[C@]2(C)[C@@H]([C@H](C)/C=C/[C@H](C)C(C)C)CC[C@@H]12 [ERGOCALCIFEROL] | > 30 | > 30 |  |  |  | 
23 | Cc1c(N(C)CS(=O)(=O)O)c(=O)n(-c2ccccc2)n1C [METAMIZOLE] | > 30 | > 30 |  |  |  | 
24 | CN(C)CCCNc1c2ccccc2nc2cccc([N+](=O)[O-])c12 [NITRACRINE] |  |  |  | 16 |  | > 30
25 | CC(C)NCC(O)c1ccc(O)c(O)c1 (stereo unspecified) [ISOPROTERENOL] |  |  |  | > 10 | > 10 | > 30
26 | CN1CCC(=C2c3ccccc3CCc3cccnc32)CC1 [AZATADINE] |  |  | 8.64 | 0.08 |  | > 30
